Assay [1] addresses T1, Bcl-xL (Homo sapiens, UniProt Q07817).
T1 construct: made in house
The assay can be described thus: TR-FRET binding assay, competition with F-Bak for Bcl-xL binding site. Conditions: GST-Bcl-xL, F-Bak probe. Here is the method: The measurement of competition of compounds of the invention with F-Bak for a Bcl-2 family protein (Bcl-xL) binding site using a Time Resolved Fluorescence Resonance Energy Transfer (TR-FRET) Binding Assay:
(§1) Test compounds were serially diluted in DMSO starting at 50 μM (2× starting concentration; 10% DMSO) and 10 μL transferred into a 384-well plate.
(§2) The samples are then mixed on a shaker for 1 minute then incubated for an additional 2 hours at room temperature. For each assay plate, a probe/antibody and protein/antibody/probe mixture were included as a negative and a positive control, respectively. Fluorescence was measured on the Envision (Perkin Elmer) using a 340/35 nm excitation filter and 520/525 (F-Bak) and 495/510 nm (Tb-labeled anti-his antibody) emission filters. Dissociation constants (Ki) were determined using Wang's equation (see, Wang, Z. X. An exact mathematical expression for describing competitive binding of two different ligands to a protein molecule. FEBS Lett. 1995 360:111-114). The TR-FRET assay can be performed in the presence of varying concentrations of human serum (HS) or fetal bovine serum (FBS).
A general note: Time-resolved FRET reads energy transfer from a long-lived donor to a nearby acceptor.

The next assay concerns the target T2, Bcl-2 (Homo sapiens, UniProt P10415).
T2 construct: made in house
The assay can be described thus: TR-FRET binding assay, competition with F-Bak for Bcl-2 binding site. Conditions: GST-Bcl-2, F-Bak probe. The protocol: as §1, §2
For comparison, the measurement of the competition of compounds of the invention for other Bcl-2 family protein binding sites (e.g., Bcl-2, Mcl-1) using the TR-FRET binding assay was accomplish by substituting GST-Bcl-xL in the TR-FRET assay with other GST-labeled protein, e.g. GST-Bcl-2, GST-Mcl-1 prepared in-house.
For comparison, data (Ki in micromolar) from the measurement of the competition by certain compounds of the invention (i.e., compounds 1, 28, 38, 63, 71, 75, 80, 81, 92 and 94 in Table 1) with F-Bak for the Bcl-2 binding site using the TR-FRET binding assay are, 1.2, 0.15, 0.01, 0.018, 0.50, 0.272, 0.167, 0.66, 0.23 and 0.000003 respectively.

The target in assay [2] is T1, Bcl-xL. The experiment in a line: Alpha Screen Bcl-xL binding assay, competition with Bim26-mer. The settings on record: values listed in the order of Table 1; read-out: Alphascreen results (IC50). The protocol: The measurement of competition of compounds of the invention with Bim26-mer for a Bcl-2 family protein binding site using an Alpha Screen Bcl-xL Binding Assay:
The BH3 proteins ALPHASCREEN™ assay was used to identify active small molecules Bcl-2 family protein screen. e.g., Bcl-xL, hmMcl-1 screen. To determine an accurate estimation of the IC50, the compounds were routinely tested at starting concentrations, 100 μM and/or 1 μM and serially titrated 3 fold over 11 dilutions.
The beads come in close proximity when the protein and the peptides interact. Donor beads contain a photosensitiser that converts oxygen to an excited form of O2 at an excitation of 680 nm. Energy is transformed from the singlet oxygen and reacts with chemiluminescers on the acceptor bead, resulting in light emission at 520-620 nm. […] With this information, the IC50 of each compound was calculated
GST-Bcl-xL, GST-hmMcl-1 and biotinylated GST proteins were prepared in-house and were stored as stock solutions at −80° C. The biotinylated-Bak, and biotinylated-Bim peptides were purchased from Auspep and were stored as 500 μM stock solutions in 100% DMSO at −80° C. The ALPHASCREEN™ GST (Glutathione-S-Transferase) Detection Kit was obtained from Perkin Elmer Lifesciences (Cat #6760603R). The Proxiplates, white 384 well flat-Bottom plates were purchased from Interpath Services, Melbourne (Cat #784075). The seals to cover the plates were purchased from Proscience. Melbourne (Cat#784075). DMSO was purchased from AnalaR. The 384 deep well plates and the Polypropylene 50 μL, V bottom polypropylene compound plates were purchased from Matrical.
Compounds of the invention were prepared as 10 mM stocks with 100% DMSO on the day prior to performing the assay. […] To achieve a final compound concentration of 1 μM, in a separate matrical plate, 28 μL of 100% DMSO and 2 μL of 10 mM compound was added to a well, mixed well. 2 μL of this solution was taken and added to 38 μL of 100% DMSO. 20 μL of this solution was added to the test matrical plate. Several control compounds were included in the test plates. For the control wells 15 μL 100% DMSO only was added to the appropriate wells of each plate. The compound plates were then serially diluted 2 fold using the MiniTrak. Once titrations were complete, the compound plate was immediately covered with a foil seal to prevent evaporation.
The assay and bead buffers were prepared fresh. Each titrated compound plate was assayed in duplicate. The following volumes were sufficient to run 12 Proxiplates (4 assay plates run in duplicate in each of Bclxl, hmMcl and counter assays)
Protein and Peptide Preparation; and Assay Performance • 1. The assay and bead buffers were used to prepare the acceptor and donor solutions. ALPHASCREEN™ beads are light sensitive and therefore prepared in a darkened room. 2.5 μL of beads were added per 1 mL of buffer. • 2. The volume of protein or peptide to add was calculated using the following formula:
[formula] • C1=Final Concentration of protein/peptide • C2=Stock Concentration of protein/peptide • V1=Total Volume of Acceptor/Donor Solution • V2=Volume of stock protein/Peptide to add to Acceptor/Donor solution • 3. The assay components were prepared as separate Acceptor and Donor Solutions. The Acceptor Solution contained Acceptor heads and target protein, while the Donor Solution contained Donor beads and biotinylated peptide.
• 4. After the solutions were prepared, they were left to incubate for 30 minutes at room temperature to allow the beads to bind to the protein and the peptide. • 5. 50 μL of Bcl-xL solution, 50 μL of hmMcl-1 solution and 50 µL of biotinylated-GST were added into separate deep wells on an assay plate. A control […]. Assay/Bead buffer was added separate well plates (no protein). • 6.

As a reminder, the Ki is the dissociation constant of the complex between target and ligand, obtained from inhibition or displacement. Higher therefore signals weaker binding. A word on the IC50: it is the concentration needed to halve the response being measured.

T1 sequence (Q07817 whole entry, species assumed): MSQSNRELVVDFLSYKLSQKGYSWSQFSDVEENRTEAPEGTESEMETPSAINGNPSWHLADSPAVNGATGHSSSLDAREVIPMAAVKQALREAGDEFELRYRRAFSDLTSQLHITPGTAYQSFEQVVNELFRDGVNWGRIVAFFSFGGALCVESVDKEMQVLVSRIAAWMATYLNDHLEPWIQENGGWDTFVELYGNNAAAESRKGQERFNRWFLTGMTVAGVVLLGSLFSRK
T2 sequence (P10415 whole entry, species assumed): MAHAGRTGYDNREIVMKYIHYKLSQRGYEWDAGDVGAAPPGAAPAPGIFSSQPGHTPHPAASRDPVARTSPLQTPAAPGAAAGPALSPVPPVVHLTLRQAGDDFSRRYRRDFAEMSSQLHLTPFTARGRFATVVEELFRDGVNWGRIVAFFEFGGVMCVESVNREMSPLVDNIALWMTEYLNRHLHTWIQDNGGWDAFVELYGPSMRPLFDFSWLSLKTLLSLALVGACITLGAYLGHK

As for `COc1ccc(-c2sc(-c3ccc4c(c3)N(C(=O)Nc3nc5ccccc5s3)CCC4)nc2C(=O)N(C)C)cc1` [Example 81, 2-(1-(benzo[d]thiazol-2-ylcarbamoyl)-1,2,3,4-tetrahydroquinolin-7-yl)-5-(4-methoxyphenyl)-N,N-dimethylthiazole-4-carboxamide], the Ki on Bcl-xL [1] and at Bcl-2 was 660 nM throughout. Further, the IC50 on Bcl-xL [2] came out at 380 nM.

Turning to `O=C(O)c1csc(-c2ccc3c(c2)N(C(=O)Nc2nc4ccccc4s2)CCC3)n1` [Example 1], the Ki is 197 nM on Bcl-xL [1] and 1200 nM at Bcl-2. The IC50 on Bcl-xL [2] amounted to 360 nM.

For `CN(CCOc1ccccc1)c1sc(-c2ccc3c(c2)N(C(=O)Nc2nc4ccccc4s2)CCO3)nc1C(=O)O` [Example 76, 2-(4-(benzo[d]thiazol-2-ylcarbamoyl)-3,4-dihydro-2H-benzo[b][1,4]oxazin-6-yl)-5-(methyl(2-phenoxyethyl)amino)thiazole-4-carboxylic acid], the IC50 at Bcl-xL [2] was 390 nM.

In the case of `O=C(O)c1nc(-c2ccc3c(c2)N(C(=O)Nc2nc4ccccc4s2)CCC3)sc1Oc1ccc(-n2ncc3cncnc32)cc1` [Example 93, 5-(4-(1H-pyrazolo[3,4-d]pyrimidin-1-yl)phenoxy)-2-(1-(benzo[d]thiazol-2-ylcarbamoyl)-1,2,3,4-tetrahydroquinolin-7-yl)thiazole 4-carboxylic acid], on Bcl-xL [2], the IC50 was found to be 40 nM.

With `O=C(O)c1nc(-c2ccc3c(c2)N(C(=O)Nc2nc4ccccc4s2)CCC3)ccc1OCCCOc1cccc2cccnc12` [Example 46], on Bcl-xL [2], the IC50 amounted to 10 nM.

In the case of `CS(=O)(=O)NC(=O)c1nc(-c2ccc3c(c2)N(C(=O)Nc2nc4ccccc4s2)CCO3)ccc1OCCCc1ccccc1` [Example 91, N-(benzo[d]thiazol-2-yl)-6-(6-(methylsulfonylcarbamoyl)-5-(3-phenylpropoxy)pyridin-2-yl)-2H-benzo[b][1,4]oxazin-4(3H)-carboxamide], at Bcl-xL [2], the IC50 was 140 nM.

As to `COc1ccc(-c2sc(-c3ccc4c(c3)N(C(=O)Nc3nc5ccccc5s3)CCC4)nc2C(=O)O)cc1` [Example 71, 2-(1-(benzo[d]thiazol-2-ylcarbamoyl)-1,2,3,4-tetrahydroquinolin-7-yl)-5-(4-methoxyphenyl)thiazole-4-carboxylic acid], the Ki on Bcl-xL [1] was found to be 7 nM; on Bcl-2 it was 500 nM. The IC50 at Bcl-xL [2] was 40 nM.

`O=C(O)c1ccc(-c2sc(-c3ccc4c(c3)N(C(=O)Nc3nc5ccccc5s3)CCO4)nc2C(=O)O)cc1` [Example 68, 2-(4-(benzo[d]thiazol-2-ylcarbamoyl)-3,4-dihydro-2H-benzo[b][1,4]oxazin-6-yl)-5-(4-carboxyphenyl)thiazole-4-carboxylic acid]: at Bcl-xL [1], the affinity corresponds to a Ki of 470 nM. Moreover, the IC50 at Bcl-xL [2] was 540 nM.

On to `O=C(O)c1nc(-c2ccc3c(c2)N(C(=O)Nc2nc4ccccc4s2)CCO3)sc1CCCCc1ccccc1` [Example 77, 2-(4-(benzo[d]thiazol-2-ylcarbamoyl)-3,4-dihydro-2H-benzo[b][1,4]oxazin-6-yl)-5-(4-phenylbutyl)thiazole-4-carboxylic acid], for which, on Bcl-xL [2], the IC50 amounted to 120 nM.

For the compound `COc1ccc(-c2sc(-c3ccc4c(c3)N(C(=O)Nc3nc5ccc(F)cc5s3)CCC4)nc2C(=O)O)cc1` [Example 72, 2-(1-(6-fluorobenzo[d]thiazol-2-ylcarbamoyl)-1,2,3,4-tetrahydroquinolin-7-yl)-5-(4-methoxyphenyl)thiazole-4-carboxylic acid], the IC50 on Bcl-xL [2] is 10100 nM.

As for `CC(C)Oc1ccc(-c2sc(-c3ccc4c(c3)N(C(=O)Nc3nc5ccccc5s3)CCC4)nc2C(=O)O)cc1F` [Example 80, 2-(1-(benzo[d]thiazol-2-ylcarbamoyl)-1,2,3,4-tetrahydroquinolin-7-yl)-5-(3-fluoro-4-isopropoxyphenyl)thiazole-4-carboxylic acid], the Ki at Bcl-xL [1] was 0.7 nM; on Bcl-2, 167 nM. The IC50 on Bcl-xL [2] came to 6 nM.

Regarding `NCc1ccc(OCCCc2sc(-c3ccc4c(c3)N(C(=O)Nc3nc5ccccc5s3)CCO4)nc2C(=O)O)cc1` [Example 83, 5-(3-(4-(aminomethyl)phenoxy)propyl)-2-(4-(benzo[d]thiazol-2-ylcarbamoyl)-3,4-dihydro-2H-benzo[b][1,4]oxazin-6-yl)thiazole-4-carboxylic acid], the IC50 on Bcl-xL [2] is 5 nM.

As for `O=C(O)c1nc(-c2ccc3c(c2)N(C(=O)Nc2nc4ccccc4s2)CCC3)sc1Oc1ccccc1` [Example 63, 2-(1-(benzo[d]thiazol-2-ylcarbamoyl)-1,2,3,4-tetrahydroquinolin-7-yl)-5-phenoxythiazole-4-carboxylic acid], the Ki on Bcl-xL [1] was determined as 12 nM; at Bcl-2 it was 18 nM. In addition, the 50% inhibitory concentration (IC50) at Bcl-xL [2] stood at 50 nM.

As to `O=C(O)c1nc(-c2ccc3c(c2)N(C(=O)Nc2nc4ccccc4s2)CCC3)sc1CCCOc1ccc(-n2ncc3cncnc32)cc1` [Example 94, 5-(3-(4-(1H-pyrazolo[3,4-d]pyrimidin-1-yl)phenoxy)propyl)-2-(1-(benzo[d]thiazol-2-ylcarbamoyl)-1,2,3,4-tetrahydroquinolin-7-yl)thiazole-4-carboxylic acid], the Ki on Bcl-xL [1] and at Bcl-2 was 0.003 nM throughout. On Bcl-xL [2], the IC50 was determined as 0.5 nM.

Consider `COc1ccc(Oc2sc(-c3ccc4c(c3)N(C(=O)Nc3nc5ccccc5s3)CCO4)nc2C(=O)O)cc1` [Example 69, 2-(4-(benzo[d]thiazol-2-ylcarbamoyl)-3,4-dihydro-2H-benzo[b][1,4]oxazin-6-yl)-5-(4-methoxyphenoxy)thiazole-4-carboxylic acid], for which, on Bcl-xL [2], the IC50 amounted to 680 nM.

As to `CC(C)(C)OC(=O)Nc1ccc(OCCCc2sc(-c3ccc4c(c3)N(C(=O)Nc3nc5ccccc5s3)CCC4)nc2C(=O)O)cc1` [Example 85, 2-(1-(benzo[d]thiazol-2-ylcarbamoyl)-1,2,3,4-tetrahydroquinolin-7-yl)-5-(3-(4-(tert-butoxycarbonylamino)phenoxy)propyl)thiazole-4-carboxylic acid], at Bcl-xL [2], the IC50 is 0.5 nM.

With `CCOc1ccc(-c2sc(-c3ccc4c(c3)N(C(=O)Nc3nc5ccccc5s3)CCC4)nc2C(=O)O)cc1` [Example 75, 2-(1-(benzo[d]thiazol-2-ylcarbamoyl)-1,2,3,4-tetrahydroquinolin-7-yl)-5-(4-ethoxyphenyl)thiazole-4-carboxylic acid], the Ki at Bcl-xL [1] was 1 nM; at Bcl-2, 272 nM. Besides, on Bcl-xL [2], the IC50 is 7 nM.

The record behind these values is patent US9067928B2 (Genentech, Inc., priority 2008, dated 2015).
